Data from paper PMC10755736, “Modulating Liquid–Liquid Phase Separation of Nck Adaptor Protein against Enteropathogenic Escherichia coli Infection” (ACS Central Science, 2023).
Non-standard residues stand in square brackets, D forms with d. Residues, ends and D or L forms follow the SMILES beside them. *: point of attachment. Biotin = O=C1N[C@H]2[C@H](CS[C@H]2CCCCC(=O)*)N1; Benzoyl(3-SO2F) = O=C(c1cccc(S(=O)(=O)F)c1)*; pY = N[C@@H](Cc1ccc(OP(=O)(O)O)cc1)C(=O)O; Dap = NC[C@H](N)C(=O)O

Key:
[1] = test system: EPEC infection of Caco-2 cells; assay: EPEC infection assay of Caco-2 cells (CFU counts); type: cell-based, enteropathogenic Escherichia coli; settings: with L17E-mediated delivery, L17E 40 μM
Procedure: Lastly, to examine whether pretreatment of Caco-2 cells with L17E/p1 could prevent EPEC infection, we first established a bacterial infection assay (Figure 7a). Caco-2 cells were pretreated with L17E/p1 for 2 h. After excess peptides were removed, Caco-2 cells were then infected with EPEC at different multiplicity of infection (MOI) values (MOI is commonly defined as the ratio of infectious bacteria to cells in a culture) for 3 h, and extra bacterial cells were removed from the culture. Next, gentamicin was added to the cell culture to remove EPEC that are merely attached to the surface of Caco-2 cells, leaving only engulfed EPEC inside Caco2 cells to be counted (gentamicin treatment will not kill intracellular bacteria due to its cellular impermeability). After gentamicin was washed away, cells were lysed to release EPEC cells inside, and the cell lysates were diluted to count the number of EPEC cells as colony-forming units (cfu) on agar plates.
Caco-2 cells were seeded in a 24-well plate at a density of 1×10^4 cells for 24 h and pretreated with peptide complexes for 2 h. After washing with DMEM, cells were infected with EPEC at selected MOI values for 3 h at 37 ℃. Cells were then treated with gentamicin ([…]) for 2 h and lysed with 1% […]
Triton X-100 for 15 min. […]
The sample was loaded onto 12% SDS/PAGE glycerol gel and then transferred onto a PVDF membrane using Bio-Rad […]. The membrane was blocked and incubated with a rabbit anti-Nck antibody (Abcam, Hong Kong) at 4 °C overnight, followed by a n anti -rabbit HRP -labeled secondary antibody (Abcam, Hong Kong).
SPSS 23.0 statistical software was used to process experimental data. The differences between mean ± SEM of three independent experiments were assessed by Student's t -test.

Nck = target: T1, Nck (Homo sapiens, UniProt P16333); assay: Crosslinking of peptides with recombinant Nck in vitro (SDS-PAGE, Western blotting); type: binding; settings: peptide:Nck 5:1, 37 °C, PBS, 1 h; SDS-PAGE and anti-biotin Western blotting
T1 construct: GST (followed by PreScission/HRV 3C site) (N, cleaved yes); made in house; host or cells: E. coli BL21(DE3)
Description: Although peptide Y474 can block Nck-mediated LLPS, the requirement of a high concentration of the blocker peptide is hard to achieve inside the cell. […] The side chains of the Nck lysine residues are pointing toward the residues at pY+1 and pY+2 positions with distances of only 4 to 6 Å. This unique feature gives us an opportunity to design covalent blockers for Nck-SH2 by installing electrophiles at the pY+1 or pY+2 positions to enable a proximal conjugation reaction with one of the lysine residues. Covalent blockage through the characteristic lysine residues will maximize the specificity of the inhibitor toward Nck-SH2. As sulfonyl fluoride has been reported to react with proteinaceous nucleophiles such as lysine, histidine, or cysteine,[34] we installed a sulfonyl fluoride group on the side chain of diaminopropionic acid, giving an unnatural amino acid X1 at different positions such as pY+1 (Asp6) and pY+3 (Val8) of peptide EEHIpYDEVAAD. Besides the amino acid X1, we also included α-chloroacetyl-carrying amino acids X2 and X3, which may also react with proteineous nucleophiles. Electrophile-containing reactive peptides p1 to p11 were synthesized with a biotin tag at the N-termini (Figure 4b). After the reactive peptides were incubated with recombinant Nck protein at a 5:1 ratio at 37 °C in PBS for 1 h, the formation of covalently linked Nck–peptide conjugates could be observed, shown as new protein bands with molecular weights higher than that of Nck based on denatured SDS-PAGE and Western blotting analysis against biotin (Figure 4c). […] At 37 °C in PBS buffer, the 1:1 reaction efficiency reached 50% in 2 min (Figure S4 in the Supporting Information).
Figure 4 Covalently reactive peptides designed based on a Tir peptide. (a) Crystal structure of Nck-SH2 in complex with a peptide EEHIpYDEVAAD from EPEC protein Tir (PDB: 2CI9). (b) List of synthetic reactive peptides. (c) Unnatural amino acids in the peptides. (d) SDS-PAGE (top) and Western blotting (bottom) analyses showing covalent conjugation of the peptides with Nck. […]

Nck-SH2 = settings: cited from earlier work
Description: Phosphorylated Tir is known to bind to Nck-SH2. […] Also, the sequence of nephrin contains three Tyr-containing sequences that are similar to those of the Tir peptide: HLYDEV, PLYDEV, and GIYDQV (the potential phosphorylation sites are underscored), with a hydrophobic residue at the pY-1 site, and negatively charged residues at pY+1 and/or pY+2 (Figure 2c). Therefore, we reason that phosphorylation at these Tyr turns nephrin into p-nephrin, a ...

**Q.** Which “blockage of EPEC invasion/infection of Caco-2 cells” value [1] does the source give for `CC[C@H](C)[C@H](NC(=O)[C@H](Cc1c[nH]cn1)NC(=O)[C@H](CCC(=O)O)NC(=O)[C@H](CCC(=O)O)NC(=O)[C@@H]1CCCN1)C(=O)N[C@@H](Cc1ccc(OP(=O)(O)O)cc1)C(=O)N[C@@H](CC(=O)O)C(=O)N[C@@H](CCC(=O)O)C(=O)N[C@H](C(=O)N[C@@H](C)C(=O)N[C@@H](C)C(=O)N[C@@H](CC(=O)O)C(=O)N1CCC[C@H]1C(=O)NCC(N)=O)C(C)C` [Y474] here?
**A.** can block EPEC invasion to Caco-2 cells

**Q.** For `CC[C@H](C)[C@H](NC(=O)[C@H](Cc1c[nH]cn1)NC(=O)[C@H](CCC(=O)O)NC(=O)[C@H](CCC(=O)O)NC(=O)CCCC[C@@H]1SC[C@@H]2NC(=O)N[C@@H]21)C(=O)N[C@@H](Cc1ccc(OP(=O)(O)O)cc1)C(=O)N[C@@H](CC(=O)O)C(=O)N[C@@H](CCC(=O)O)C(=O)N[C@H](C(=O)N[C@@H](C)C(=O)N[C@@H](C)C(=O)N[C@@H](CNC(=O)c1cccc(S(=O)(=O)F)c1)C(N)=O)C(C)C` [p7] (Biotin-EEHI[pY]DEVAA[Dap](Benzoyl(3-SO2F))-NH2), which “reactivity with Nck” value (Nck) is on record?
**A.** noticeable reactivity

**Q.** With “EEHIpYDEVAADP [12-residue pY-containing Tir peptide]” as the molecule, how does the “binding to Nck-SH2” value (Nck-SH2) read?
**A.** strong binder to Nck-SH2
